In ChEMBL document CHEMBL1201862, “PubChem BioAssay data set” (2004):
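Where inhibition never reached the appropriate level, the endpoint shown equals the highest concentration tested. Otherwise, values were interpolated linearly from a five-concentration, 48-hour dose response in 96-well plates. GI50 is the concentration that inhibits growth by half.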 The source made the active and inactive calls. No stated cut-off is given here; in the data, active = GI50 up to about 1.1 µM and inactive = higher.

Legend:
Test in all cases: growth of human tumour cells (NCI), 48 h
[1] = test system: COLO 205
[2] = test system: NCI-H460
[3] = test system: NCI-H522
[4] = test system: HOP-62
[5] = test system: SK-MEL-2
[6] = test system: ACHN
[7] = test system: OVCAR-8
[8] = test system: MOLT-4
[9] = test system: HCT-15
[10] = test system: SF-539
[11] = test system: HT-29
[12] = test system: SK-OV-3
[13] = test system: M14
[14] = test system: A549
[15] = test system: HCC 2998
[16] = test system: EKVX
[17] = test system: NCI-H226
[18] = test system: HL-60
[19] = test system: SNB-19
[20] = test system: UO-31

| SMILES | GI50 [1] | GI50 [2] | GI50 [3] | GI50 [4] | GI50 [5] | GI50 [6] | GI50 [7] | GI50 [8] | GI50 [9] | GI50 [10] | GI50 [11] | GI50 [12] | GI50 [13] | GI50 [14] | GI50 [15] | GI50 [16] | GI50 [17] | GI50 [18] | GI50 [19] | GI50 [20] |
| --- | --- | --- | --- | --- | --- | --- | --- | --- | --- | --- | --- | --- | --- | --- | --- | --- | --- | --- | --- | --- |
| O=C(Nc1cccc(O)c1)C(=O)C(C(=O)c1ccccc1F)C1OC(=O)c2ccccc21 (stereo not given) | 23.2 µM (inactive) | 29.4 µM (inactive) | 17.3 µM (inactive) | 29.9 µM (inactive) | 20.9 µM (inactive) | 37.7 µM (inactive) | 14.6 µM (inactive) | 28.6 µM (inactive) | 18.3 µM | 15.2 µM (inactive) | 36.7 µM (inactive) | 36.1 µM (inactive) | 23.5 µM (inactive) | 29.4 µM (inactive) | 22.2 µM (inactive) | 34 µM (inactive) | 17.2 µM (inactive) | 28.7 µM (inactive) | 19.9 µM (inactive) | 32.1 µM (inactive) |
| O=C1Sc2ccccc2/C1=N/Nc1ccccc1[N+](=O)[O-] | > 100 µM (inactive) | > 100 µM (inactive) | > 100 µM (inactive) | > 100 µM (inactive) | > 100 µM (inactive) | 93.1 µM (inactive) | 56.4 µM (inactive) | > 100 µM (inactive) | > 100 µM | 69.5 µM (inactive) | > 100 µM (inactive) | 86.9 µM (inactive) | > 100 µM (inactive) | > 100 µM (inactive) | > 100 µM (inactive) | > 100 µM (inactive) | > 100 µM (inactive) | > 100 µM (inactive) | > 100 µM (inactive) | > 100 µM (inactive) |
